Results reported in publication PMC4893628, “Chalcone-based Selective Inhibitors of a C4 Plant Key Enzyme as Novel Potential Herbicides” (Scientific Reports, 2016).
Read-outs that look alike come from different tables or passages of the source.

Assays:
F. trinervia PEPC = target: T1, F. trinervia PEPC (Flaveria trinervia, UniProt P30694); assay: biochemical; type: biochemical
T1 construct: the full-length ppcA gene of PEPC from F. trinervia (EMBL-Bank X61304); made in house; host or cells: Escherichia coli BL21(DE3)
T1 sequence (P30694 1-966): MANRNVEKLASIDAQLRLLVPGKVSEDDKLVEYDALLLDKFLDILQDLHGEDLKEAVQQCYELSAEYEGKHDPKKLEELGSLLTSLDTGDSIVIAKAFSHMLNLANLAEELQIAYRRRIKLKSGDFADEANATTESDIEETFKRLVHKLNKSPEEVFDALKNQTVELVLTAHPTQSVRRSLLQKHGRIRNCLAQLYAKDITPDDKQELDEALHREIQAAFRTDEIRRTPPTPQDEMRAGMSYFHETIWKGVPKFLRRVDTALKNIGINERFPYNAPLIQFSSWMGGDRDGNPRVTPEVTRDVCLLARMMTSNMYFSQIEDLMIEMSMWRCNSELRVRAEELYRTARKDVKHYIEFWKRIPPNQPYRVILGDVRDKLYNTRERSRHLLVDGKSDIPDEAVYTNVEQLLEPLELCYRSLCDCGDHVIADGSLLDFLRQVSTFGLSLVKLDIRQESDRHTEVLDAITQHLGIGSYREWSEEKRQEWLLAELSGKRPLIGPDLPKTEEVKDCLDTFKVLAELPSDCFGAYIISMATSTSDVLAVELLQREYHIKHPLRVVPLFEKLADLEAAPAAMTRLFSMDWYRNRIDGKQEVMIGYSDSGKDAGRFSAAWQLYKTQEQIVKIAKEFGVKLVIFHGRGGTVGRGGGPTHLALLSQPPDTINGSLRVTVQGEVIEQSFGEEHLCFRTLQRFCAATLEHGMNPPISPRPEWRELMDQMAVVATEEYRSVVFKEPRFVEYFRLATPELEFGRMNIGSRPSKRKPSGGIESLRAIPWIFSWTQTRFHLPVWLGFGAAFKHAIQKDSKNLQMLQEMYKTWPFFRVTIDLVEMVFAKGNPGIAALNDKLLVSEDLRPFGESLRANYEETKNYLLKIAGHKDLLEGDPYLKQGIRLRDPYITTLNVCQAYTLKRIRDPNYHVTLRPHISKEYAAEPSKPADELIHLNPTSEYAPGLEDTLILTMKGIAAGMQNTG
Method: The IC50 values of small molecule compounds on F. pringlei and F. trinervia PEPCs were determined using PEPC coupled spectrophotometric assay. The amount of NADH oxidized by NADH-malate dehydrogenase was measured by the decrease in absorbance at 340 nm in a Beckman DU-800 spectrophotometer, thus the value is in proportion to the corresponding substrate conversion of the enzyme. […] The reactions were started by adding two folds of the Km value of PEP for each enzyme. The data were analyzed using GraFit (Erithacus Software, UK).

[1] = tested on: Pseudomonas putida KT2440; assay: Bacterial growth in microscale cultivation, P. putida; type: cell-based; details: for activity at 5 µM / activity at 50 µM / activity at 500 µM: Pseudomonas putida; for Lag Phase: relative to control
Method: (§1) The following bacteria were cultivated in the presence of trans-chalcone derived inhibitors: Corynebacterium glutamicum ATCC13032[43], Escherichia coli K-12 MG1655[44], Pseudomonas putida KT2440[45], and Bacillus subtilis 168[46]. The growth of these bacteria was monitored in flower-well plates shaken at 1200 rpm as backscatter at 620 nm (gain 20) using a BioLector® microscale cultivation system (m2p labs, Baesweiler, Germany). For further experimental details please refer to the Supplementary Information.
(§2) medium or the appropriate minimal medium and shaken at 140 rpm overnight. For inoculation of
(§3) the main culture, cells equivalent to an optical density at 600 nm of 0.5 (C. glutamicum, E. coli,
(§4) and P. putida) or 0.25 (B. subtilis) in 800 µL medium were washed and resuspended in fresh
(§5) media. Inhibitor substances were dissolved in DMSO and added to the media to a final
(§6) Since the least polar trans-chalcone and 2’-hydroxychalcone precipitated in the growth media at
(§7) the highest concentrations, the maximal concentration of these compounds was reduced to 400
(§8) µM and 100 µM, respectively. The final backscatter at 620 nm, the growth rate (h-1), and the
(§9) duration of the lag phase of all cultures were determined in a BioLector microscale cultivation
(§10) system in comparison to negative controls supplemented with the solvent DMSO. A longer lag

[2] = tested on: Escherichia coli K-12 MG1655; assay: Bacterial growth in microscale cultivation, E. coli; type: cell-based; details: for activity at 5 µM / activity at 50 µM / activity at 500 µM: Escherichia coli; for Lag Phase: relative to control
Method: as §1, §2, §3, §4, §5, §6, §7, §8, §9, §10

Bacillus subtilis 168 = assay: Bacterial growth in microscale cultivation, B. subtilis; type: cell-based; details: for Lag Phase: relative to control
Method: as §1, §2, §3, §4, §5, §6, §7, §8, §9, §10

## O=C(/C=C/c1ccccc1)c1ccccc1O [Compound 2, 2′-Hydroxychalcone]
F. trinervia PEPC; C4 PEPC over C3 isoform
  Selectivity C4/C3: 1.5 fold
F. trinervia PEPC; IC50 F. trinervia PEPC, C4 PEPC
  IC50: 51.9 ± 15 µM
[1]; KT2440, read-out: Final Backscatter, complex medium, 5 µM, relative to control
  activity at 5 µM: 98%
[1]; KT2440, read-out: Final Backscatter, complex medium, 50 µM, relative to control
  activity at 50 µM: 101%
[1]; KT2440, read-out: Final Backscatter, complex medium, 500 µM, relative to control
  activity at 500 µM: 102%
[1]; KT2440, read-out: Final Backscatter, minimal medium, 5 µM, relative to control
  activity at 5 µM: 96.6%
[1]; KT2440, read-out: Final Backscatter, minimal medium, 50 µM, relative to control
  activity at 50 µM: 98%
[1]; KT2440, read-out: Final Backscatter, minimal medium, 500 µM, relative to control
  activity at 500 µM: 111%
[1]; KT2440, read-out: Growth rate, complex medium, 5 µM, relative to control
  activity at 5 µM: 103%
[1]; KT2440, read-out: Growth rate, complex medium, 50 µM, relative to control
  activity at 50 µM: 102%
[1]; KT2440, read-out: Growth rate, complex medium, 500 µM, relative to control
  activity at 500 µM: 189%
[1]; KT2440, read-out: Growth rate, minimal medium, 5 µM, relative to control
  activity at 5 µM: 96%
[1]; KT2440, read-out: Growth rate, minimal medium, 50 µM, relative to control
  activity at 50 µM: 99.3%
[1]; KT2440, read-out: Growth rate, minimal medium, 500 µM, relative to control
  activity at 500 µM: 153%
[1]; complex medium, 5 µM
  Lag Phase: 101,0%
[1]; complex medium, 50 µM
  Lag Phase: 102,6%
[1]; complex medium, 500 µM
  Lag Phase: 110,8%
[1]; minimal medium, 5 µM
  Lag Phase: 100,0%
[1]; minimal medium, 50 µM
  Lag Phase: 100,6%
[1]; minimal medium, 500 µM
  Lag Phase: 100,0%
[2]; MG1655, read-out: Final Backscatter, complex medium, 5 µM, relative to control
  activity at 5 µM: 100%
[2]; MG1655, read-out: Final Backscatter, complex medium, 50 µM, relative to control
  activity at 50 µM: 103%
[2]; MG1655, read-out: Final Backscatter, complex medium, 500 µM, relative to control
  activity at 500 µM: 98.1%
[2]; MG1655, read-out: Final Backscatter, minimal medium, 5 µM, relative to control
  activity at 5 µM: 100%
[2]; MG1655, read-out: Final Backscatter, minimal medium, 50 µM, relative to control
  activity at 50 µM: 97%
[2]; MG1655, read-out: Final Backscatter, minimal medium, 500 µM, relative to control
  activity at 500 µM: 101%
[2]; MG1655, read-out: Growth rate, complex medium, 5 µM, relative to control
  activity at 5 µM: 97.7%
[2]; MG1655, read-out: Growth rate, complex medium, 50 µM, relative to control
  activity at 50 µM: 86.6%
[2]; MG1655, read-out: Growth rate, minimal medium, 5 µM, relative to control
  activity at 5 µM: 102%
[2]; MG1655, read-out: Growth rate, minimal medium, 50 µM, relative to control
  activity at 50 µM: 105%
[2]; complex medium, 5 µM
  Lag Phase: 95,5%
[2]; complex medium, 50 µM
  Lag Phase: 100,0%
[2]; minimal medium, 5 µM
  Lag Phase: 89,4%
[2]; minimal medium, 50 µM
  Lag Phase: 91,6%
Bacillus subtilis 168; Bacillus subtilis, 168, read-out: Final Backscatter, complex medium, 5 µM, relative to control
  activity at 5 µM: 96.4%
Bacillus subtilis 168; Bacillus subtilis, 168, read-out: Final Backscatter, complex medium, 50 µM, relative to control
  activity at 50 µM: 97.6%
Bacillus subtilis 168; Bacillus subtilis, 168, read-out: Final Backscatter, complex medium, 100 µM, relative to control
  activity at 100 µM: 112%
Bacillus subtilis 168; Bacillus subtilis, 168, read-out: Final Backscatter, complex medium, 500 µM, relative to control
  activity at 500 µM: 75.6%
Bacillus subtilis 168; Bacillus subtilis, 168, read-out: Final Backscatter, minimal medium, 5 µM, relative to control
  activity at 5 µM: 97.9%
Bacillus subtilis 168; Bacillus subtilis, 168, read-out: Final Backscatter, minimal medium, 50 µM, relative to control
  activity at 50 µM: 95.5%
Bacillus subtilis 168; Bacillus subtilis, 168, read-out: Final Backscatter, minimal medium, 100 µM, relative to control
  activity at 100 µM: 101%
Bacillus subtilis 168; Bacillus subtilis, 168, read-out: Final Backscatter, minimal medium, 500 µM, relative to control
  activity at 500 µM: 70%
Bacillus subtilis 168; Bacillus subtilis, 168, read-out: Growth rate, complex medium, 5 µM, relative to control
  activity at 5 µM: 91.2%
Bacillus subtilis 168; Bacillus subtilis, 168, read-out: Growth rate, complex medium, 50 µM, relative to control
  activity at 50 µM: 97.7%
Bacillus subtilis 168; Bacillus subtilis, 168, read-out: Growth rate, complex medium, 100 µM, relative to control
  activity at 100 µM: 118%
Bacillus subtilis 168; Bacillus subtilis, 168, read-out: Growth rate, minimal medium, 5 µM, relative to control
  activity at 5 µM: 96.8%
Bacillus subtilis 168; Bacillus subtilis, 168, read-out: Growth rate, minimal medium, 50 µM, relative to control
  activity at 50 µM: 113%
Bacillus subtilis 168; Bacillus subtilis, 168, read-out: Growth rate, minimal medium, 100 µM, relative to control
  activity at 100 µM: 134%
Bacillus subtilis 168; Bacillus subtilis, 168, read-out: Growth rate, minimal medium, 500 µM, relative to control
  activity at 500 µM: 98.7%
Bacillus subtilis 168; complex medium, 5 µM
  Lag Phase: 89,8%
Bacillus subtilis 168; complex medium, 50 µM
  Lag Phase: 100,0%
Bacillus subtilis 168; complex medium, 100 µM
  Lag Phase: 95,4%
Bacillus subtilis 168; minimal medium, 5 µM
  Lag Phase: 99,5%
Bacillus subtilis 168; minimal medium, 50 µM
  Lag Phase: 108,5%
Bacillus subtilis 168; minimal medium, 100 µM
  Lag Phase: 107,8%
Bacillus subtilis 168; minimal medium, 500 µM
  Lag Phase: 143,1%
